Laboratory results from patent US4537717A.
Values after ≈ are worked out from the molar mass of the structure shown.

What was measured:
[1] = test system: Staphylococcus epidermidis EPI2; assay type: cell-based; settings: agar dilution; 2, 5, 17, 22 median of three tests; paired values two experiments
toxicity test (LD50) = settings: mouse, in vivo, iv, mice; administered intravenously
[2] = test system: Staphylococcus aureus X400; assay type: cell-based; settings: methicillin-resistant strain; agar dilution; 2, 5, 17, 22 median of three tests; paired values two experiments
[3] = test system: Staphylococcus aureus ATCC 6738P; assay: agar-plate disc-diffusion test; assay type: cell-based; settings: suspended in water at 1 mg/ml; 7 mm disc; 24-48 hours at 25-37° C.
Streptococcus pyogenes = assay: in vivo activity against experimental bacterial infection (ED50); settings: mice, dose protecting fifty percent of test animals; for ED50 Streptococcus pyogenes Oral: two doses orally; for ED50 Streptococcus pyogenes Subcutaneous: two doses subcutaneously
Staphylococcus aureus = assay: as above; settings: mice; two doses subcutaneously; dose protecting fifty percent of test animals
[4] = test system: Streptococcus pyogenes C203; assay type: cell-based; settings: agar dilution; 2, 5, 17, 22 median of three tests; paired values two experiments
Streptococcus Group 9960 = assay type: cell-based, Streptococcus pneumoniae; settings: agar dilution; 2, 5, 17, 22 median of three tests; paired values two experiments
[5] = test system: Streptococcus pneumoniae Group D X66; assay type: cell-based; settings: agar dilution; 2, 5, 17, 22 median of three tests; paired values two experiments
[6] = test system: Micrococcus luteus ATCC 9341; assay: agar-plate disc-diffusion test; assay type: cell-based; settings: suspended in water at 1 mg/ml; 7 mm disc; 24-48 hours at 25-37° C.
[7] = test system: Staphylococcus aureus X1.1; assay type: cell-based; settings: agar dilution; 2, 5, 17, 22 median of three tests; paired values two experiments
[8] = test system: Streptococcus pneumoniae Park I; assay type: cell-based; settings: agar dilution; 2, 5, 17, 22 median of three tests; paired values two experiments
[9] = test system: Staphylococcus aureus V41; assay type: cell-based; settings: penicillin-resistant strain; agar dilution; 2, 5, 17, 22 median of three tests; paired values two experiments
[10] = test system: Bacillus subtilis ATCC 6633; assay: agar-plate disc-diffusion test; settings: 7 mm disc, 24-48 hours at 25-37° C.; for Size of Zone of Inhibition (mm) B. subtilis ATCC 6633, grown on minimal nutrient agar: 1 mg/ml; for Size of Zone of Inhibition (mm) Bacillus subtilis ATCC 6633: suspended in water at 1 mg/ml
Method: ^a Compounds were suspended in water at a concentration of 1 mg/ml; a
7 mm disc was dipped into the suspension and then placed on the agar
surface; incubation: 24-48 hours at 25-37° C.
^b Grown on minimal nutrient agar

[11] = test system: Staphylococcus epidermidis EPI1; assay type: cell-based; settings: agar dilution; 2, 5, 17, 22 median of three tests; paired values two experiments

With `CCCCCCCCCCCCC(=O)N[C@@H](Cc1c[nH]c2ccccc12)C(=O)N[C@@H](CC(N)=O)C(=O)N[C@@H](CC(=O)O)C(=O)N[C@@H]1C(=O)NCC(=O)N[C@@H](CCCN)C(=O)N[C@@H](CC(=O)O)C(=O)N[C@H](C)C(=O)N[C@@H](CC(=O)O)C(=O)NCC(=O)N[C@H](CO)C(=O)N[C@@H]([C@H](C)CC(=O)O)C(=O)N[C@@H](CC(=O)c2ccccc2N)C(=O)O[C@@H]1C` [Compound 7] the “MIC Staphylococcus epidermidis EPI2” value [1] was 0.5 µg/mL (≈ 0.301 µM), the LD50 (toxicity test (LD50)) was 112 mg/kg and the “MIC Staphylococcus aureus X400” value [2] was 0.5 µg/mL (≈ 0.301 µM). For the same compound, the “Size of Zone of Inhibition (mm) Staphylococcus aureus ATCC 6738P” value [3] was 21 mm, the “ED50 Streptococcus pyogenes Oral” value (Streptococcus pyogenes) was 45 mg/kg × 2 and the “ED50 Streptococcus pyogenes Subcutaneous” value (Streptococcus pyogenes) was 0.046 mg/kg × 2. The “ED50 Staphylococcus aureus Subcutaneous” value (Staphylococcus aureus) was 0.54 mg/kg × 2, the “MIC Streptococcus pyogenes C203” value [4] was 0.25 µg/mL (≈ 0.15 µM) and the “MIC Streptococcus pneumoniae Group 9960” value (Streptococcus Group 9960) was 32 µg/mL (≈ 19.2 µM). For the same compound, the “MIC Streptococcus pneumoniae Group D X66” value [5] was 0.03 µg/mL (≈ 0.018 µM), the “Size of Zone of Inhibition (mm) Micrococcus luteus ATCC 9341” value [6] was 19 mm and the “MIC Staphylococcus aureus X1.1” value [7] was 0.125 µg/mL (≈ 0.0752 µM). For the same compound, the “MIC Streptococcus pneumoniae Park I” value [8] was 0.25 µg/mL (≈ 0.15 µM), the “MIC Staphylococcus aureus V41” value [9] was 0.125 µg/mL (≈ 0.0752 µM) and the “Size of Zone of Inhibition (mm) B. subtilis ATCC 6633, grown on minimal nutrient agar” value [10] was 29 mm. The “Size of Zone of Inhibition (mm) Bacillus subtilis ATCC 6633” value [10] was 17 mm and the “MIC Staphylococcus epidermidis EPI1” value [11] was 0.5 µg/mL (≈ 0.301 µM).
With `C=CCCCCCCCCC(=O)N[C@@H](Cc1c[nH]c2ccccc12)C(=O)N[C@@H](CC(N)=O)C(=O)N[C@@H](CC(=O)O)C(=O)N[C@@H]1C(=O)NCC(=O)N[C@@H](CCCN)C(=O)N[C@@H](CC(=O)O)C(=O)N[C@H](C)C(=O)N[C@@H](CC(=O)O)C(=O)NCC(=O)N[C@H](CO)C(=O)N[C@@H]([C@H](C)CC(=O)O)C(=O)N[C@@H](CC(=O)c2ccccc2N)C(=O)O[C@@H]1C` [Compound 11] the “MIC Staphylococcus epidermidis EPI2” value [1] was 1 µg/mL (≈ 0.612 µM), the LD50 (toxicity test (LD50)) was at least 500 mg/kg and the “MIC Staphylococcus aureus X400” value [2] was 0.5 µg/mL (≈ 0.306 µM). The “Size of Zone of Inhibition (mm) Staphylococcus aureus ATCC 6738P” value [3] was 21 mm, the “ED50 Streptococcus pyogenes Oral” value (Streptococcus pyogenes) was 138 mg/kg × 2 and the “ED50 Streptococcus pyogenes Subcutaneous” value (Streptococcus pyogenes) was 0.068 mg/kg × 2. The “ED50 Staphylococcus aureus Subcutaneous” value (Staphylococcus aureus) was 0.93 mg/kg × 2, the “MIC Streptococcus pyogenes C203” value [4] was 0.5 µg/mL (≈ 0.306 µM) and the “MIC Streptococcus pneumoniae Group 9960” value (Streptococcus Group 9960) was 0.5 µg/mL (≈ 0.306 µM). The “MIC Streptococcus pneumoniae Group D X66” value [5] was 1 µg/mL (≈ 0.612 µM), the “Size of Zone of Inhibition (mm) Micrococcus luteus ATCC 9341” value [6] was 20 mm and the “MIC Staphylococcus aureus X1.1” value [7] was 0.5 µg/mL (≈ 0.306 µM). For the same compound, the “MIC Streptococcus pneumoniae Park I” value [8] was 0.25 µg/mL (≈ 0.153 µM), the “MIC Staphylococcus aureus V41” value [9] was 0.5 µg/mL (≈ 0.306 µM) and the “Size of Zone of Inhibition (mm) B. subtilis ATCC 6633, grown on minimal nutrient agar” value [10] was 25 mm. The “Size of Zone of Inhibition (mm) Bacillus subtilis ATCC 6633” value [10] was 17 mm and the “MIC Staphylococcus epidermidis EPI1” value [11] was 1 µg/mL (≈ 0.612 µM).
